Species on record: Rattus norvegicus
Assay: Open TG-GATES - Regimen: Single
Assay type: toxicity, organism-based, Sprague-Dawley
Parameters: regimen Single, gender Male, age 6 weeks
Settings: in vivo, po, 0 mg/kg, route gavage, dose level Control; for APTT / Bas / Eos / Fbg / Hb / Ht / Lym / MCH / MCHC / MCV / Mono / Neu / PT / Plat / RBC / Ret / WBC: tissue Blood; for KIDNEY_L / KIDNEY_R / KIDNEY_TOTAL: tissue Kidney; for LIVER: tissue Liver; for ALP / ALT / AST / BUN / CRE / Ca / Cl / DBIL / GLC / IP / K / LDH / Na / PL / RALB / TBIL / TC / TG / TP / gamma-GTP: tissue Plasma

Work on `COc1cc([C@@H]2c3cc4c(cc3[C@@H](O[C@@H]3O[C@@H]5CO[C@@H](C)O[C@H]5[C@H](O)[C@H]3O)[C@H]3COC(=O)[C@H]23)OCO4)cc(OC)c1O` [ETOPOSIDE] yielded a TERMINAL_BW (3 h) of 199.4 g, an APTT (3 h) of 17.1 s and a Bas (3 h) of 0%. For the same compound, the Eos (3 h) was 1.2%, the Fbg (3 h) was 192.2 mg/dL and the Hb (3 h) was 13.3 g/dL. For the same compound, the Ht (3 h) was 39.3%, the Lym (3 h) was 74.8% and the MCH (3 h) was 22.4 pg. It also gave an MCHC (3 h) of 33.8%, an MCV (3 h) of 66.2 fL and a Mono (3 h) of 8%. The Neu (3 h) was 15.8%, the PT (3 h) was 12.2 s and the Plat (3 h) was 113.5 x10_4/uL. The RBC (3 h) was 594.2 x10_4/ul, the Ret (3 h) was 10.6% and the WBC (3 h) was 85 x10_2/uL. For the same compound, the KIDNEY_L (3 h) was 1 g, the KIDNEY_R (3 h) was 1 g and the KIDNEY_TOTAL (3 h) was 2 g. For the same compound, the LIVER (3 h) was 9.5 g, the ALP (3 h) was 857.8 IU/L and the ALT (3 h) was 32.8 IU/L. The AST (3 h) was 67.6 IU/L, the BUN (3 h) was 11.8 mg/dL and the CRE (3 h) was 0.5 mg/dL. It also gave a Ca (3 h) of 10.4 mg/dL, a Cl (3 h) of 105 meq/L and a DBIL (3 h) of 0.034 mg/dL. For the same compound, the GLC (3 h) was 197.6 mg/dL, the IP (3 h) was 9.1 mg/dL and the K (3 h) was 4.7 meq/L. For the same compound, the LDH (3 h) was 97.4 IU/L, the Na (3 h) was 141.6 meq/L and the PL (3 h) was 126.6 mg/dL. The RALB (3 h) was 3.4 g/dL, the TBIL (3 h) was 0.3 mg/dL and the TC (3 h) was 71.8 mg/dL. The TG (3 h) was 43 mg/dL, the TP (3 h) was 5.2 g/dL and the gamma-GTP (3 h) was 1 IU/L. The TERMINAL_BW (6 h) was 198 g, the APTT (6 h) was 16.6 s and the Bas (6 h) was 0%. The Eos (6 h) was 0.8%, the Fbg (6 h) was 201.6 mg/dL and the Hb (6 h) was 13.4 g/dL. It also gave a Ht (6 h) of 39.7%, a Lym (6 h) of 82.4% and an MCH (6 h) of 22 pg. It also gave an MCHC (6 h) of 33.7%, an MCV (6 h) of 65.3 fL and a Mono (6 h) of 5.6%. For the same compound, the Neu (6 h) was 11.2%, the PT (6 h) was 11.9 s and the Plat (6 h) was 117.8 x10_4/uL. It also gave an RBC (6 h) of 607.8 x10_4/ul, a Ret (6 h) of 9.8% and a WBC (6 h) of 93.7 x10_2/uL. The KIDNEY_L (6 h) was 0.9 g, the KIDNEY_R (6 h) was 0.9 g and the KIDNEY_TOTAL (6 h) was 1.8 g. For the same compound, the LIVER (6 h) was 9.1 g, the ALP (6 h) was 946.6 IU/L and the ALT (6 h) was 36 IU/L. The AST (6 h) was 65.2 IU/L, the BUN (6 h) was 11.6 mg/dL and the CRE (6 h) was 0.6 mg/dL. The Ca (6 h) was 10.6 mg/dL, the Cl (6 h) was 105 meq/L and the DBIL (6 h) was 0.016 mg/dL. It also gave an IP (6 h) of 10.5 mg/dL, a K (6 h) of 4.8 meq/L and an LDH (6 h) of 65.8 IU/L. It also gave a Na (6 h) of 142.4 meq/L, a PL (6 h) of 132.8 mg/dL and an RALB (6 h) of 3.3 g/dL. For the same compound, the TBIL (6 h) was 0.4 mg/dL, the TC (6 h) was 72.8 mg/dL and the TG (6 h) was 68.4 mg/dL. The TP (6 h) was 5.2 g/dL, the gamma-GTP (6 h) was 1 IU/L and the TERMINAL_BW (9 h) was 194.1 g. It also gave an APTT (9 h) of 16.9 s, a Bas (9 h) of 0% and an Eos (9 h) of 1.2%. The Fbg (9 h) was 206 mg/dL, the Hb (9 h) was 13.4 g/dL and the Ht (9 h) was 39.7%. The Lym (9 h) was 74.4%, the MCH (9 h) was 22.2 pg and the MCHC (9 h) was 33.9%. It also gave an MCV (9 h) of 65.6 fL, a Mono (9 h) of 9.8% and a Neu (9 h) of 15%. It also gave a PT (9 h) of 10.9 s, a Plat (9 h) of 117.1 x10_4/uL and an RBC (9 h) of 604.6 x10_4/ul. The Ret (9 h) was 9.1%, the WBC (9 h) was 71.2 x10_2/uL and the KIDNEY_L (9 h) was 0.9 g. For the same compound, the KIDNEY_R (9 h) was 0.9 g, the KIDNEY_TOTAL (9 h) was 1.9 g and the LIVER (9 h) was 8.4 g. The ALP (9 h) was 752.2 IU/L, the ALT (9 h) was 29.8 IU/L and the AST (9 h) was 58.2 IU/L. It also gave a BUN (9 h) of 10.4 mg/dL, a CRE (9 h) of 0.5 mg/dL and a Ca (9 h) of 10.6 mg/dL. For the same compound, the Cl (9 h) was 107.6 meq/L, the DBIL (9 h) was 0.022 mg/dL and the GLC (9 h) was 190.6 mg/dL. For the same compound, the IP (9 h) was 10.1 mg/dL, the K (9 h) was 4.6 meq/L and the LDH (9 h) was 59.2 IU/L. For the same compound, the Na (9 h) was 144.6 meq/L, the PL (9 h) was 127.4 mg/dL and the RALB (9 h) was 3.4 g/dL. It also gave a TBIL (9 h) of 0.4 mg/dL, a TC (9 h) of 71.6 mg/dL and a TG (9 h) of 28.4 mg/dL. It also gave a TP (9 h) of 5.4 g/dL, a gamma-GTP (9 h) of 0.8 IU/L and a TERMINAL_BW (24 h) of 215.6 g. For the same compound, the APTT (24 h) was 16.3 s, the Bas (24 h) was 0% and the Eos (24 h) was 1.2%. The Fbg (24 h) was 207.6 mg/dL, the Hb (24 h) was 13.1 g/dL and the Ht (24 h) was 38.4%. For the same compound, the Lym (24 h) was 78.2%, the MCH (24 h) was 22.7 pg and the MCHC (24 h) was 34.1%. The MCV (24 h) was 66.6 fL, the Mono (24 h) was 6% and the Neu (24 h) was 14.6%. The PT (24 h) was 11.6 s, the Plat (24 h) was 107.4 x10_4/uL and the RBC (24 h) was 578 x10_4/ul. The Ret (24 h) was 8.8%, the WBC (24 h) was 94.9 x10_2/uL and the KIDNEY_L (24 h) was 1 g. For the same compound, the KIDNEY_R (24 h) was 1 g, the KIDNEY_TOTAL (24 h) was 2 g and the LIVER (24 h) was 10.9 g. It also gave an ALP (24 h) of 866 IU/L, an ALT (24 h) of 38.2 IU/L and an AST (24 h) of 68.2 IU/L. For the same compound, the CRE (24 h) was 0.6 mg/dL, the Ca (24 h) was 10.9 mg/dL and the Cl (24 h) was 104.6 meq/L. The DBIL (24 h) was 0.03 mg/dL, the GLC (24 h) was 196.6 mg/dL and the IP (24 h) was 7.7 mg/dL. The K (24 h) was 4.8 meq/L, the LDH (24 h) was 85.2 IU/L and the Na (24 h) was 141.4 meq/L. It also gave a PL (24 h) of 161.6 mg/dL, an RALB (24 h) of 3.6 g/dL and a TBIL (24 h) of 0.3 mg/dL. It also gave a TC (24 h) of 92.2 mg/dL, a TG (24 h) of 84.4 mg/dL and a TP (24 h) of 5.6 g/dL. It also gave a gamma-GTP (24 h) of 1.6 IU/L.
